From PMC7416818 (Analytical biochemistry, 2020)
Like-named read-outs stand apart in the source and are kept apart here.

Experiments:
NNMT [1] = molecular target: T1, NNMT (Homo sapiens, UniProt P40261); conditions: read-out: Literature value Ki, determined by SAHH coupled assay; cited from earlier work
T1 sequence (P40261 1-264): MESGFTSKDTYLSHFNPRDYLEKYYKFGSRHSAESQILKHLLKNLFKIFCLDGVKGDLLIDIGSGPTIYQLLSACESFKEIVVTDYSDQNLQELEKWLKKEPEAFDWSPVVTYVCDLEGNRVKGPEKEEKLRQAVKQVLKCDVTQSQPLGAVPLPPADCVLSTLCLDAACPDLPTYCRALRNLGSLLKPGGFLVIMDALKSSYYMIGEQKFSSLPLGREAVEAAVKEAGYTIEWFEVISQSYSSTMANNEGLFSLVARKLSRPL

NNMT [2] = molecular target: T1, NNMT; assay: FP-based competition binding assay with probe II138
NNMT [3] = molecular target: T1, NNMT; conditions: read-out: Literature value Km; cofactor; cited from earlier work
NNMT [4] = molecular target: T1, NNMT; assay: SAHH-coupled fluorescence assay; format: biochemical; conditions: linker effect

Compound | Ki (NNMT [1]) [µM] | Ki (NNMT [2]) [µM] | Km (NNMT [3]) [µM] | Loss in Ki in comparison with LL320 (NNMT [4]) | Difference of Ki in FP assay in comparison with SAHH coupled assay (NNMT [2]; FP Ki versus SAHH-coupled Ki)
1 methyl quinoline [1-MQ] | > 100 |  |  |  | 
C[S+](CC[C@H](N)C(=O)[O-])C[C@H]1O[C@@H](n2cnc3c(N)ncnc32)[C@H](O)[C@@H]1O (stereo partly drawn) [AdoMet, S-adenosyl-L-methionine] |  | 20.3 ± 2.9 | 24 ± 6.8 |  | 
NC(=O)c1cccnc1 [NAM, nicotinamide] | > 100 | > 1000 |  |  | 
NCCCNc1ncnc2c1ncn2[C@@H]1O[C@H](CN(CC#Cc2cccc(C(N)=O)c2)CC[C@H](N)C(=O)O)[C@@H](O)[C@H]1O [compound 10] |  |  |  | about 100 fold | less than 2 fold
